Source: US20070098735A1, “Methods for the Elimination of Pathogens and Other Particulate Agents” (priority 2005, published 2007)

What was measured:
[1] = test system: macrophage phagocytosis in wounded mice; assay: Inhibition of phagocytosis in vivo by gadolinium chloride, wound closure; conditions: GdCl3 10 mg/kg IV day -1 and day 0; HSP70 30 μg/dose SC day 0
Procedure: Inhibition of Phagocytosis In vivo. Intravenous injection of gadolinium chloride inhibits phagocytosis of macrophages without affecting their viability or affecting other cell types. Mice were treated (on day minus-1 and day 0) with GdCl3 (10 mg/kg body weight in 200 μl of distilled water) administered intravenously via the retro-orbital venous plexus. Subsequently the mice were wounded as previously described (Day 0) and treated with PBS and HSP70 (30 μg/dose) given subcutaneously on day 0.
Treatment groups shown are (i) HSP70 alone; (ii) HSP70+GdCl3; (iii) PBS alone; and (iv) PBS+GdCl3. *P values were obtained using the Student's t-test by comparing the percent inhibition in wound closure of gadolinium chloride plus treatment to percent wound closure of the treatment alone.

[2] = test system: Murine macrophage lines (RAW264.7, J774.A1 or RAW264NO-); assay: Phagocytosis assay in vitro (uptake of Alexa Fluor 488-labeled particles); format: cell-based; design: effect of LR-disrupting drugs on HSP70-mediated phagocytosis: dose or concentration left out as unconfirmed
Procedure: Phagocytosis Assay in vitro. RAW 264.7, RAW264.7 (NO-) and J774A.1 cells were cultured in DMEM or RPMI (RAW NO-) with 10% FCS, harvested, and washed. 3×10^5 cells/well were incubated in serum-free Earle's minimal essential medium (EMEM) in a 24-well plate for 1 hour at 37° C. Alexa Fluor® 488-labeled particles (inert polystyrene microspheres; or yeast, Saccharomyces cerevisiae or Gram-negative bacteria, Escherichia coli, 40 particles/macrophage) were added and co-incubated in a dark environment for 60 minutes in serum free EMEM with or without HSPs, LPS, or control proteins. At the end of 60 minutes incubation, the plate was covered in a dark container on ice. Specific measures were taken to exclude the fluorescence that resulted from particles that were outside of the cell or sticking to the surface of the cell. […] Specifically, trypan blue (0.8 mg/ml) was added for 60 seconds and plates were analyzed immediately using FluorImager SI (Molecular Dynamics/Amersham). Since the emission of Alexa Fluor® 488, about 519 nm at an excitation of about 490 nm, falls within the absorbance range of trypan blue (475-675 nm), the fluorescence of the sample only represents the intracellular fluorescence. External or surface-bound fluorescence is quenched. Using Student's t test, the results were analyzed and P-values were calculated.
HSP-mediated phagocytosis was quantified by measuring the internalized fluorescence measured by FluorImager SI and Relative Mean Fluorescence Intensity (RMFI) was compared between the treatment groups (as indicated). All the treatment groups were compared to medium alone using the Student's t test and significance denoted by P<0.01. The error bar represents one standard deviation. The results shown are a cumulative analysis of 3 experiments, 3 wells/group.

[3] = test system: lipid raft (LR) microdomain of the macrophage plasma membrane; assay: Binding of exogenous HRP-labeled HSP70 to purified lipid raft fractions; design: species or system murine; conditions: MCD (30 mM); HRP-labeled HSP70 100 μg/ml; Triton X-100
Procedure: Purification of lipid rafts. Lipid rafts were purified as DRMs (detergent resistant membrane) using non-ionic detergents following sucrose gradient centrifugation. […] After incubation, cells were washed 3× with PBS and lysed with 2 ml MES (4-morpholinoethanesulfonic acid) buffered saline (MBS; 150 mM NaCl, 20 mM MES, pH 6.5, […] and 5 mM iodoacetamide) containing 0.5% Triton X-100 or 1% for 30 minutes on ice or 7 minutes at 37° C. respectively. The cells were mixed with an equal volume of 90% sucrose in MEB buffer (150 mM NaCl, 20 mM MES [pH 6.5]) and placed at the bottom of the centrifuge tube. […] Fractions of 1 ml each were collected from the bottom of tube and each fraction was analyzed by SDS-PAGE and immunoblotting.
Briefly, RAW264.7 macrophages were treated with exogenous HRP-labeled HSP70 (100 μg/ml) or were left untreated for 60 minutes and washed with PBS three times to remove free HSPs. […] These fractions obtained (light: LR and heavy: non-LR) were then analyzed using immunoblotting to detect HRP activity of HSP70-HRP complexes or tested for the presence of an LR-associated ganglioside GM1 by using HRP-cholera toxin B. Similarly, these fractions were tested for the amount of cholesterol using (Biovision Research Products, CA). […]

[4] = test system: macrophages; assay: Trypan blue exclusion viability of treated macrophages; conditions: MCD-treated cells
[5] = test system: full thickness surgical wounds on the dorsum of BALB/cJ mice; assay: Closure of full thickness surgical wounds, percent wound closure; format: in vivo
Procedure: Surgery and Treatment. Mice were anesthetized using Ketamine (2.0 mg/mouse) and Xylazine (0.1 mg/mouse) were administered intraperitoneally (IP) and the dorsal skin was shaved. After sterile prepping of the area, a full thickness circular wound, 8 mm diameter, was made on the dorsal skin using a disposable biopsy punch (Miltex Inc, York, Pa.) on the midline of the dorsum approximately at the iliac crest. The mice were then randomly assigned into the treatment groups. Initial wound measurements were performed while the mice were still anesthetized. Mice were then treated on days 0, 2, 4, and 6 unless otherwise specified. All agents used as treatment were diluted in 0.5 ml of PBS and injected using a 25-gauge needle in the subcutaneous space in the nape of the neck. The surgical procedures, post-operative monitoring, and safety concerns were approved by the Institutional Animal Care and Usage Committee.
Measurements and Analysis. Wound healing of open wounds is a complex process with many parameters to consider. […] The wound surface area was determined by measuring the craniocaudal and lateromedial distances using vernier calipers in perpendicular axis on days 0, 2, 4, 6, 9, and 11 postoperatively unless noted. Changes in wound area were expressed as percent wound closure. Wound closure data was plotted as average percent wound closure ±SEM unless otherwise noted. All calculations and data analysis were performed using Microsoft Excel and Sigma Plot. Sigma Plot was used to perform Student's t-tests for reported P values.
Full thickness surgical wounds were created on the dorsum of BALB/cJ mice as described in Methods. Wounds were made on day 0. Subsequently, the wounds were treated with exogenous injections of HSP70, HSP90, gp96 (30 μg/dose) or buffer administered subcutaneously (SC) on days 0, 2, 4 and 6 following surgery (FIG. 6A). The wounds were measured on days 0, 2, 4, 6, 9, 11 unless otherwise noted. Wounds were measured serially, percent wound closure was calculated and plotted against time in order to quantitate the rate of healing by secondary intention. […] Data is plotted as average percent wound closure ±SEM on days indicated. Two mice from each treatment group (PBS (n=12), HSP70 (n=11), HSP90 (n=12), and gp96 (n=11)) were sacrificed for histology on days 2, 4, and 6 post-surgery (data not shown). The P values obtain using the Student's t-test.
Results are of average percent wound closure ±SEM on day 2 post surgery. The *P values were obtained using the Student's t-test by comparing HSP treatment to all of the non-HSP control treatments. The least significant P value was reported. […] Doses higher than 50 μg/dose were not tested.

[6] = test system: macrophages (TNF-α release); assay: TNF-α release by LPS-treated macrophages in presence or absence of serum; format: cell-based; conditions: serum-free conditions
Procedure: HSP70 used in all assays was purified using LPS-free sterile packaged plastic ware, baked glass ware (420° F. for 4 hours) and using endotoxin-free culture grade reagents to minimize inadvertent LPS contamination. Further, LPS levels and activity in the purified HSPs were quantified and confirmed to be <1 EU/mg of protein. Next, HSPs and LPS were compared for their influence on phagocytosis in presence or absence of serum. These conditions were specifically chosen since LPS-binding protein (LBP), an essential mediator for LPS function, is not present in serum-free conditions. As a control, macrophages were treated with LPS in presence or absence of serum and their ability to elicit TNF-α release was compared (FIG. 3A). […] Briefly, macrophages were treated with HSP70 (100 μg/ml) or LPS (different doses ranging 25 ng-1 μg/ml) in serum-free conditions for 1 hour and a phagocytosis assay was performed. […] The error bar is one standard deviation. The results shown are a cumulative analysis of 3 experiments, 3 wells/group.

[7] = test system: full thickness wounds of naïve mice; assay: Adoptive transfer of pre-treated RAW 264.7 macrophages into wounded mice, wound closure; format: in vivo; conditions: 400,000 macrophages pre-treated at 30 μg/dose; day 2 post surgery
Procedure: Macrophage Cell Culture, Pre-treatment, and Adoptive Transfer. RAW 264.7 macrophages (ATCC) were grown as described by ATCC. Cells were harvested by gently scraping them from the cell culture flasks, centrifuged and washed once in cultured grade PBS. […] They were then washed 3 times with PBS, and were re-suspended to achieve a concentration of 400,000, 40,000, or 4,000 cells per 0.5 ml PBS. Adoptive transfer of these cells was performed by subcutaneous injections in the nape of the neck using a 25-gauge needle in mice that were wounded as previously described. Adoptive transfers were given on days 0, 2 and 4 post-operatively.
Macrophages were treated in vitro with either HSPs or non-HSP controls and transferred into naïve wounded mice (as described in Materials and Methods) to test if HSPs could in part mediate some of their activity through macrophages. […] Data is plotted as average percent wound closure ±SEM on day 2. *P values were obtained using the Student's t-test by comparing HSP treatment to all of the non-HSP control treatments. The least significant P value was reported.
Titratability of adoptive transfer was examined by transferring 4,000, 40,000 or 400,000 macrophages pre-treated as described in Materials and Methods.

[8] = test system: RAW 264.7 macrophages; assay: In vitro macrophage phagocytosis of wound debris; format: cell-based, murine; conditions: RAW264.7, labeled wound debris

## [Cl][Gd]([Cl])[Cl] [GdCl3, gadolinium chloride]
[1]
  inhibition of the HSP70-mediated effects on wound healing: up to 67%

## methyl-β-cyclodextrin [MCD]
[2]; MCD 0-30 mM, HSP70 100 μg/ml
  dose dependence of inhibitory effect on macrophage response to HSP70: titratable
[2]; nystatin or MCD, labeled yeast 40 particles/macrophage
  effect of LR-disrupting drugs on HSP70-mediated phagocytosis: HSP70-mediated phagocytosis was inhibited
[3]
  effect on binding of exogenous HSP70 to lipid rafts: significant reduction in the binding of exogenously administered HSP70
[4]
  viability (trypan blue exclusion): 95%

## lipopolysaccharide [LPS, reference compound]
[2]; serum-free conditions, 1 hour, HSP70 100 μg/ml, LPS 25 ng-1 μg/ml, heating 100° C. for 20 minutes
  ability to enhance phagocytosis: unable to enhance phagocytosis in serum-free conditions
[5]; 30 μg/dose, day 2 post surgery
  wound healing on day 2: 25%
[5]; day 2 post surgery
  wound closure of non-HSP controls compared to PBS control: not significantly different to the PBS control
[5]; same doses as HSPs and significantly smaller quantities
  benefit to the wounds: not beneficial to the wounds at any of the doses tested
[6]
  stimulation of macrophages (TNF-α release): ineffective at stimulating macrophages
[7]
  wound healing on day 2 after adoptive transfer of pre-treated macrophages: 21%
[8]
  mean fluorescence intensity compared to medium control: not significantly different to the medium control
